Converted amounts (≈) assume the structure as drawn.
tested on: Klebsiella pneumoniae; assay: Antibacterial activity against Klebsiella pneumoniae 12-4 after 18 to 24 hrs by standard twofold serial dilution method; assay type: functional; details: not given

Compound | MIC
NCC1CN(c2nc3c(cc2F)c(=O)c(C(=O)O)cn3[C@@H]2C[C@@H]2F)C/C1=N/OCc1ccccc1 (stereo not given in full) | 0.06 µg/mL (≈ 0.124 µM)

tested on: Klebsiella pneumoniae; assay: Antibacterial activity against Klebsiella pneumoniae 12-2 after 18 to 24 hrs by standard twofold serial dilution method; assay type: functional; details: not given

Compound | MIC
NCC1CN(c2nc3c(cc2F)c(=O)c(C(=O)O)cn3[C@@H]2C[C@@H]2F)C/C1=N/OCc1ccccc1 (stereo not given in full) | 0.125 µg/mL (≈ 0.259 µM)

tested on: Staphylococcus epidermidis; assay: Antibacterial activity against methicillin-sensitive Staphylococcus epidermidis 12-8 after 18 to 24 hrs by standard twofold serial dilution method; assay type: functional; details: not given

Compound | MIC
NCC1CN(c2nc3c(cc2F)c(=O)c(C(=O)O)cn3[C@@H]2C[C@@H]2F)C/C1=N/OCc1ccccc1 (stereo not given in full) | 0.125 µg/mL (≈ 0.259 µM)

tested on: Staphylococcus epidermidis; assay: Antibacterial activity against methicillin-sensitive Staphylococcus epidermidis 12-6 after 18 to 24 hrs by standard twofold serial dilution method; assay type: functional; details: not given

Compound | MIC
NCC1CN(c2nc3c(cc2F)c(=O)c(C(=O)O)cn3[C@@H]2C[C@@H]2F)C/C1=N/OCc1ccccc1 (stereo not given in full) | < 0.008 µg/mL

tested on: not listed separately; assay: Solubility of the compound; assay type: physicochemical; details: not given

Compound | solubility
NCC1CN(c2nc3c(cc2F)c(=O)c(C(=O)O)cn3[C@@H]2C[C@@H]2F)C/C1=N/OCc1ccccc1 (stereo not given in full) | 240 µg/mL (≈ 496 µM)

tested on: Escherichia coli; assay: Antibacterial activity against extended-spectrum beta-lactamase producing Escherichia coli 12-14 after 18 to 24 hrs by standard twofold serial dilution method; assay type: functional; details: not given

Compound | MIC
NCC1CN(c2nc3c(cc2F)c(=O)c(C(=O)O)cn3[C@@H]2C[C@@H]2F)C/C1=N/OCc1ccccc1 (stereo not given in full) | 16 µg/mL (≈ 33.1 µM)

tested on: Staphylococcus epidermidis; assay: Antibacterial activity against methicillin-sensitive Staphylococcus epidermidis 12-1 after 18 to 24 hrs by standard twofold serial dilution method; assay type: functional; details: not given

Compound | MIC
NCC1CN(c2nc3c(cc2F)c(=O)c(C(=O)O)cn3[C@@H]2C[C@@H]2F)C/C1=N/OCc1ccccc1 (stereo not given in full) | < 0.008 µg/mL

tested on: Escherichia coli; assay: Antibacterial activity against Escherichia coli 12-1 infected in mouse dosed orally twice at 0 and 6 hrs after infection; assay type: functional; details: 12-1, po

Compound | ED50
NCC1CN(c2nc3c(cc2F)c(=O)c(C(=O)O)cn3[C@@H]2C[C@@H]2F)C/C1=N/OCc1ccccc1 (stereo not given in full) | 18 mg/kg

tested on: Escherichia coli; assay: Antibacterial activity against extended-spectrum beta-lactamase producing Escherichia coli 12-15 after 18 to 24 hrs by standard twofold serial dilution method; assay type: functional; details: not given

Compound | MIC
NCC1CN(c2nc3c(cc2F)c(=O)c(C(=O)O)cn3[C@@H]2C[C@@H]2F)C/C1=N/OCc1ccccc1 (stereo not given in full) | 128 µg/mL (≈ 265 µM)

tested on: Klebsiella pneumoniae; assay: Antibacterial activity against extended-spectrum beta-lactamase producin Klebsiella pneumoniae 12-3 after 18 to 24 hrs by standard twofold serial dilution method; assay type: functional; details: not given

Compound | MIC
NCC1CN(c2nc3c(cc2F)c(=O)c(C(=O)O)cn3[C@@H]2C[C@@H]2F)C/C1=N/OCc1ccccc1 (stereo not given in full) | 16 µg/mL (≈ 33.1 µM)

tested on: Staphylococcus epidermidis; assay: Antibacterial activity against methicillin-sensitive Staphylococcus epidermidis 12-3 after 18 to 24 hrs by standard twofold serial dilution method; assay type: functional; details: not given

Compound | MIC
NCC1CN(c2nc3c(cc2F)c(=O)c(C(=O)O)cn3[C@@H]2C[C@@H]2F)C/C1=N/OCc1ccccc1 (stereo not given in full) | < 0.008 µg/mL

tested on: Staphylococcus aureus; assay: Antibacterial activity against methicillin-resistant Staphylococcus aureus 12-4 after 18 to 24 hrs by standard twofold serial dilution method; assay type: functional; details: not given

Compound | MIC
NCC1CN(c2nc3c(cc2F)c(=O)c(C(=O)O)cn3[C@@H]2C[C@@H]2F)C/C1=N/OCc1ccccc1 (stereo not given in full) | 2 µg/mL (≈ 4.14 µM)

tested on: Pseudomonas aeruginosa; assay: Antibacterial activity against Pseudomonas aeruginosa 12-12 after 18 to 24 hrs by standard twofold serial dilution method; assay type: functional; details: not given

Compound | MIC
NCC1CN(c2nc3c(cc2F)c(=O)c(C(=O)O)cn3[C@@H]2C[C@@H]2F)C/C1=N/OCc1ccccc1 (stereo not given in full) | 1 µg/mL (≈ 2.07 µM)

tested on: Klebsiella pneumoniae; assay: Antibacterial activity against extended-spectrum beta-lactamase producin Klebsiella pneumoniae 12-7 after 18 to 24 hrs by standard twofold serial dilution method; assay type: functional; details: not given

Compound | MIC
NCC1CN(c2nc3c(cc2F)c(=O)c(C(=O)O)cn3[C@@H]2C[C@@H]2F)C/C1=N/OCc1ccccc1 (stereo not given in full) | 1 µg/mL (≈ 2.07 µM)

tested on: Klebsiella pneumoniae; assay: Antibacterial activity against extended-spectrum beta-lactamase producin Klebsiella pneumoniae 12-14 after 18 to 24 hrs by standard twofold serial dilution method; assay type: functional; details: not given

Compound | MIC
NCC1CN(c2nc3c(cc2F)c(=O)c(C(=O)O)cn3[C@@H]2C[C@@H]2F)C/C1=N/OCc1ccccc1 (stereo not given in full) | 32 µg/mL (≈ 66.2 µM)

tested on: Escherichia coli; assay: Antibacterial activity against Escherichia coli ATCC 25922 after 18 to 24 hrs by standard twofold serial dilution method; assay type: functional; details: not given

Compound | MIC
NCC1CN(c2nc3c(cc2F)c(=O)c(C(=O)O)cn3[C@@H]2C[C@@H]2F)C/C1=N/OCc1ccccc1 (stereo not given in full) | < 0.008 µg/mL

tested on: Staphylococcus aureus; assay: Antibacterial activity against methicillin-sensitive Staphylococcus aureus 12-5 after 18 to 24 hrs by standard twofold serial dilution method; assay type: functional; details: not given

Compound | MIC
NCC1CN(c2nc3c(cc2F)c(=O)c(C(=O)O)cn3[C@@H]2C[C@@H]2F)C/C1=N/OCc1ccccc1 (stereo not given in full) | < 0.008 µg/mL

tested on: Streptococcus pneumoniae; assay: Antibacterial activity against Streptococcus pneumoniae ATCC 49619 after 18 to 24 hrs by standard twofold serial dilution method; assay type: functional; details: not given

Compound | MIC
NCC1CN(c2nc3c(cc2F)c(=O)c(C(=O)O)cn3[C@@H]2C[C@@H]2F)C/C1=N/OCc1ccccc1 (stereo not given in full) | 0.03 µg/mL (≈ 0.0621 µM)

tested on: Mycobacterium tuberculosis; assay: Antimycobacterial activity against Mycobacterium tuberculosis H37Rv ATCC 27294 by MABA method; assay type: functional; details: not given

Compound | MIC
NCC1CN(c2nc3c(cc2F)c(=O)c(C(=O)O)cn3[C@@H]2C[C@@H]2F)C/C1=N/OCc1ccccc1 (stereo not given in full) | 0.5 µg/mL (≈ 1.03 µM)

tested on: Staphylococcus aureus; assay: Antibacterial activity against methicillin-resistant Staphylococcus aureus 12-2 after 18 to 24 hrs by standard twofold serial dilution method; assay type: functional; details: not given

Compound | MIC
NCC1CN(c2nc3c(cc2F)c(=O)c(C(=O)O)cn3[C@@H]2C[C@@H]2F)C/C1=N/OCc1ccccc1 (stereo not given in full) | 1 µg/mL (≈ 2.07 µM)

tested on: Streptococcus pneumoniae; assay: Antibacterial activity against Streptococcus pneumoniae 12-18 after 18 to 24 hrs by standard twofold serial dilution method; assay type: functional; details: not given

Compound | MIC
NCC1CN(c2nc3c(cc2F)c(=O)c(C(=O)O)cn3[C@@H]2C[C@@H]2F)C/C1=N/OCc1ccccc1 (stereo not given in full) | 0.25 µg/mL (≈ 0.517 µM)

tested on: Klebsiella pneumoniae; assay: Antibacterial activity against extended-spectrum beta-lactamase producin Klebsiella pneumoniae 12-4 after 18 to 24 hrs by standard twofold serial dilution method; assay type: functional; details: not given

Compound | MIC
NCC1CN(c2nc3c(cc2F)c(=O)c(C(=O)O)cn3[C@@H]2C[C@@H]2F)C/C1=N/OCc1ccccc1 (stereo not given in full) | 16 µg/mL (≈ 33.1 µM)

tested on: Staphylococcus aureus; assay: Antibacterial activity against methicillin-sensitive Staphylococcus aureus 12-1 after 18 to 24 hrs by standard twofold serial dilution method; assay type: functional; details: not given

Compound | MIC
NCC1CN(c2nc3c(cc2F)c(=O)c(C(=O)O)cn3[C@@H]2C[C@@H]2F)C/C1=N/OCc1ccccc1 (stereo not given in full) | < 0.008 µg/mL

tested on: Staphylococcus aureus; assay: Antibacterial activity against methicillin-sensitive Staphylococcus aureus 12-1 infected in mouse dosed orally twice at 0 and 6 hrs after infection; assay type: functional; details: 12-1, po

Compound | ED50
NCC1CN(c2nc3c(cc2F)c(=O)c(C(=O)O)cn3[C@@H]2C[C@@H]2F)C/C1=N/OCc1ccccc1 (stereo not given in full) | 16.9 mg/kg

tested on: Staphylococcus epidermidis; assay: Antibacterial activity against methicillin-resistant Staphylococcus epidermidis 12-6 after 18 to 24 hrs by standard twofold serial dilution method; assay type: functional; details: not given

Compound | MIC
NCC1CN(c2nc3c(cc2F)c(=O)c(C(=O)O)cn3[C@@H]2C[C@@H]2F)C/C1=N/OCc1ccccc1 (stereo not given in full) | 2 µg/mL (≈ 4.14 µM)

tested on: Klebsiella pneumoniae; assay: Antibacterial activity against Klebsiella pneumoniae 12-1 after 18 to 24 hrs by standard twofold serial dilution method; assay type: functional; details: not given

Compound | MIC
NCC1CN(c2nc3c(cc2F)c(=O)c(C(=O)O)cn3[C@@H]2C[C@@H]2F)C/C1=N/OCc1ccccc1 (stereo not given in full) | 0.03 µg/mL (≈ 0.0621 µM)

tested on: Staphylococcus aureus; assay: Antibacterial activity against methicillin-sensitive Staphylococcus aureus 12-4 after 18 to 24 hrs by standard twofold serial dilution method; assay type: functional; details: not given

Compound | MIC
NCC1CN(c2nc3c(cc2F)c(=O)c(C(=O)O)cn3[C@@H]2C[C@@H]2F)C/C1=N/OCc1ccccc1 (stereo not given in full) | < 0.008 µg/mL

tested on: Staphylococcus aureus; assay: Antibacterial activity against methicillin-resistant Staphylococcus aureus 12-5 after 18 to 24 hrs by standard twofold serial dilution method; assay type: functional; details: not given

Compound | MIC
NCC1CN(c2nc3c(cc2F)c(=O)c(C(=O)O)cn3[C@@H]2C[C@@H]2F)C/C1=N/OCc1ccccc1 (stereo not given in full) | 1 µg/mL (≈ 2.07 µM)

tested on: Escherichia coli; assay: Antibacterial activity against Escherichia coli 12-1 after 18 to 24 hrs by standard twofold serial dilution method; assay type: functional; details: not given

Compound | MIC
NCC1CN(c2nc3c(cc2F)c(=O)c(C(=O)O)cn3[C@@H]2C[C@@H]2F)C/C1=N/OCc1ccccc1 (stereo not given in full) | 0.125 µg/mL (≈ 0.259 µM)

tested on: Staphylococcus aureus; assay: Antibacterial activity against Staphylococcus aureus ATCC 25923 after 18 to 24 hrs by standard twofold serial dilution method; assay type: functional; details: not given

Compound | MIC
NCC1CN(c2nc3c(cc2F)c(=O)c(C(=O)O)cn3[C@@H]2C[C@@H]2F)C/C1=N/OCc1ccccc1 (stereo not given in full) | < 0.008 µg/mL

tested on: Pseudomonas aeruginosa; assay: Antibacterial activity against Pseudomonas aeruginosa 12-14 after 18 to 24 hrs by standard twofold serial dilution method; assay type: functional; details: not given

Compound | MIC
NCC1CN(c2nc3c(cc2F)c(=O)c(C(=O)O)cn3[C@@H]2C[C@@H]2F)C/C1=N/OCc1ccccc1 (stereo not given in full) | 1 µg/mL (≈ 2.07 µM)

tested on: Escherichia coli; assay: Antibacterial activity against extended-spectrum beta-lactamase producing Escherichia coli 12-3 after 18 to 24 hrs by standard twofold serial dilution method; assay type: functional; details: not given

Compound | MIC
NCC1CN(c2nc3c(cc2F)c(=O)c(C(=O)O)cn3[C@@H]2C[C@@H]2F)C/C1=N/OCc1ccccc1 (stereo not given in full) | 16 µg/mL (≈ 33.1 µM)

tested on: Staphylococcus aureus; assay: Antibacterial activity against methicillin-sensitive Staphylococcus aureus 12-2 after 18 to 24 hrs by standard twofold serial dilution method; assay type: functional; details: not given

Compound | MIC
NCC1CN(c2nc3c(cc2F)c(=O)c(C(=O)O)cn3[C@@H]2C[C@@H]2F)C/C1=N/OCc1ccccc1 (stereo not given in full) | < 0.008 µg/mL

tested on: Staphylococcus epidermidis; assay: Antibacterial activity against methicillin-resistant Staphylococcus epidermidis 12-1 after 18 to 24 hrs by standard twofold serial dilution method; assay type: functional; details: not given

Compound | MIC
NCC1CN(c2nc3c(cc2F)c(=O)c(C(=O)O)cn3[C@@H]2C[C@@H]2F)C/C1=N/OCc1ccccc1 (stereo not given in full) | 0.25 µg/mL (≈ 0.517 µM)

tested on: Escherichia coli; assay: Antibacterial activity against extended-spectrum beta-lactamase producing Escherichia coli 12-2 after 18 to 24 hrs by standard twofold serial dilution method; assay type: functional; details: not given

Compound | MIC
NCC1CN(c2nc3c(cc2F)c(=O)c(C(=O)O)cn3[C@@H]2C[C@@H]2F)C/C1=N/OCc1ccccc1 (stereo not given in full) | 64 µg/mL (≈ 132 µM)
